Results taken from patent US6190664A, “Depigmenting cosmetic skin-care composition and use thereof” (C 3 D, priority 1995, dated 2001).

Test system: Tyrosinase
Assay: In vitro inhibition of tyrosinase (Dopachrome at 475 nm, substrate L-Dopa)
Type: biochemical
Details: for % of activity: controls = 100%
Protocol: The following test then allows to measure the inhibition of tyrosinase while dosing Dopachrome which is a coloured compound which may spectroscopically be dosed 475 nm.
In order to study the influence of some compounds on the enzymatic activity of tyrosinase, the enzymatic kinetics are achieved.
The reaction is performed at 25° C. in phosphate buffer pH7. Tyrosinase is brought together with its substrate L-Dopa. In the reaction medium it may be added the molecule to be studied.
One compares further the variation in optical density per minute of the test (in the presence of the molecule to be studied) to that of the controls (without molecule). The influence of the molecule on tyrosinase activity will be deduced. The results are then expressed as a percentage of activity knowing that the controls show 100% activity.
Appearance of Dopachrome at 475 nm is followed for 3 minutes.

| % of inhibition (tested concentration 10 mg/ml) [%] | % of activity (tested concentration 10 mg/ml) [%] | SMILES | % of inhibition (tested concentration 1 mg/ml) [%] | % of activity (tested concentration 1 mg/ml) [%] | % of inhibition (tested concentration 4 mg/ml) [%] | % of activity (tested concentration 4 mg/ml) [%] | % of inhibition (tested concentration 8 mg/ml) [%] | % of activity (tested concentration 8 mg/ml) [%] | % of inhibition (tested concentration 16 mg/ml) [%] | % of activity (tested concentration 16 mg/ml) [%] |
| --- | --- | --- | --- | --- | --- | --- | --- | --- | --- | --- |
| – | – | CCCCCCCCCCCCCCCC(=O)OC[C@H](O)[C@H]1OC(=O)C(O)=C1O [Ascorbyl Palmitate] | 66 | 34 | – | – | – | – | – | – |
| – | – | Oc1ccc(O)cc1 [Hydroquinone] | – | – | 0 | 241.9 | 0 | 229.41 | 0 | 112.53 |
| 80 | 20 | O=c1cc(CO)occ1O [Kojic acid] | 71 | 29 | – | – | – | – | – | – |
